Source: patent US20250084043A1, “FORMULATION OF METAXALONE” (iCeutica Inc., priority 2013, published 2025)
Like-named read-outs stand apart in the source and are kept apart here.

Legend:
[1] = Particle size distribution, Malvern Mastersizer 3000 laser particle size analyzer; type: physicochemical; settings: aqueous dispersing medium
Protocol: Submicron sized metaxalone drug particles were prepared by dry milling metaxalone drug substance (40%) together with lactose monohydrate and sodium lauryl sulfate in an attritor mill containing stainless steel grinding media. The total batch size was approximately 1 kg. Milled powder was discharged out the bottom of the mill and collected for analysis and further processing. […] Table 1, below, includes size data for the milled and unmilled metaxalone.

[2] = cited from earlier work

Cc1cc(C)cc(OCC2CNC(=O)O2)c1 (stereo not shown) [Metaxalone]
D[4, 3] [1]: 47.3 μm
Dv10 [1]: 16.0 μm
Dv50 [1]: 43.3 μm
Dv90 [1]: 81.8 μm
Specific Surface Area [1]: 199.7 m^2/kg
solubility ([2]; 96% ethanol): soluble
solubility ([2]; chloroform): freely soluble
solubility ([2]; ether): practically insoluble
solubility ([2]; methanol): soluble
solubility ([2]; water): practically insoluble
